Results from patent US20190111168A1, “PHOTOSENSITIZER DISPERSION, AND USE THEREOF” (Universität Regensburg, priority 2016, published 2019).

Legend:
[1] = system: Staphylococcus aureus (S. aureus; ATCC Number: 25923); test: phototoxicity measurements (MTT test; colony forming units by Miles and Misra); assay type: cell-based; conditions: for effectiveness against S. aureus in a microemulsion compared with water: microemulsion versus water; for reduction in the quantity of S. aureus: irradiated
Description: (§1) In order to investigate the phototoxicity of the microemulsions in accordance with the invention, a MTT test was used. Assaying cell vitality using a MTT test is based on the reduction of the yellow, water-soluble dye 3-(4,5-dimethylthiazol-2-yl)-2,5-diphenyltetrazolium bromide (MIT, Sigma-Aldrich Chemie GmbH, Munich, DE) into a blue-violet […] (formazan) which is insoluble in water. MTT is a dye which can pass through membranes, which is metabolized by mitochondrial dehydrogenases in living cells, which in the end leads to the formation of formazan crystals.
(§2) Formazan crystals can no longer pass through the membranes and accumulate in proliferating undamaged cells. After cell lysis and dissolving the crystals, the dye is then quantified by colorimetric measurement at 550 nm in a multi-well spectrophotometer (ELISA reader). The quantity of formazan formed is determined as the optical density (OD). The measured quantity of formazan is directly proportional to the number of proliferating cells, so that this test is suitable for the measurement of the phototoxicity of the microemulsions used. The measured OD can be assigned a cell count by means of a previously determined calibration curve.
(§3) The concentration of the respective photosensitizers TMPyP, SA-PN-01a, SA-PN-02a, SA-PN-24d, FL-AS-H-1a or FL-AS-H-2 in the microemulsions E1 to E4 was 0 μM, 10 μM, 25 μM, 50 μM, 100 μM, 250 μM and 500 μM.
(§4) Furthermore, the respective microemulsions E1 to E4 without photosensitizer were used as a control.
(§5) The phototoxicity measurements were carried out on Escherichia coli (E. coli; ATCC Number: 25922) and Staphylococcus aureus (S. aureus; ATCC Number: 25923), as described by Mosmann (1983). (Mosmann T.: Rapid colorimetric assay for cellular growth and survival: application to proliferation and cytotoxicity assays: J. Immunol. methods. 1983 (65); pages 55-63).
(§6) 25 μL of a suspension of the bacteria used were grown overnight in Müller-Hinton liquid medium (Merck KGaA, Darmstadt, Germany) with an optical density of 0.6 at 600 nm were incubated with 25 μL of the test solution at room temperature for 10 seconds in darkness in a 96-well microtitre plate (Cellstar, Greiner Bio-One, Frickenhausen, Germany).
(§7) Next, the microtitre plate was irradiated for 40 s. For irradiation, the light source Blue V from Waldmann (Villingen-Schwenningen, Germany) was used, which emits light at 380 to 480 nm (emission maximum at approximately 420 nm). The applied power was 20 mW/cm^2.
(§8) For each experiment, three controls were carried out at the same time in order to exclude side effects of the irradiation/photosensitizer (PS) on survival of the bacteria: (i) no PS, only light (=light control), (ii) no light, only PS (=dark control), and (iii) neither light nor PS (=reference control).
(§9) After irradiation had been completed, 75 μL of a 25% by weight SDS solution was added to each well of the microtitre plate and the bacterial cells were lysed overnight at 37° C. in an incubator.
(§10) Finally, the optical density (OD) was determined with the aid of a microtitre plate photometer (model EAR 400 AT, SLT Laborinstruments Austria, Salzburg, AT).
(§11) After lysis of the cells and dissolution of the crystals, the dye could then be quantified in a multi-well spectrophotometer (ELISA-Reader) by colorimetric measurement at 550 nm.
(§12) The determination of the colony forming units was carried out in accordance with the method published by Miles and Misra (Miles, AA; Misra, SS, Irwin, JO (1938 November). “The estimation of the bactericidal power of the blood” The Journal of hygiene 38 (6): 732-49). In this regard, serial dilutions from 10^−2 to 10^−9 of the corresponding bacterial suspension were produced. In each case, 3×20 μL of the corresponding bacterial dilutions were then dropped onto Müller-Hinton plates and incubated at 37° C. for 24 h. Next, the number of surviving colony forming units (CFU) was determined. All of the experiments were carried out three times.

[2] = system: Escherichia coli (E. coli; ATCC Number: 25922); test: as above; assay type: cell-based; conditions: for effectiveness against E. coli in a microemulsion compared with water: microemulsion versus water; for reduction in the quantity of E. coli: irradiated
Description: as §1, §2, §3, §4, §5, §6, §7, §8, §9, §10, §11, §12

[3] = time-resolved singlet oxygen luminescence measurements in water and microemulsions; assay type: physicochemical; set-up: Integral: unit not given here; conditions: for production of singlet oxygen following irradiation with electromagnetic radiation: 5 μM in water or microemulsions; for formation of singlet oxygen in the microemulsions used, times higher than in water: microemulsions versus water; for Integral: singlet oxygen luminescence; for Decay period / Formation time / Relative yield with respect to H2O: singlet oxygen; for Relative yield with respect to H2O: ratio of the integrals
Method: The formation of singlet oxygen following irradiation of a photosensitizer-containing microemulsion was determined using time-resolved singlet oxygen luminescence measurements.
For the relevant measurements, 5 μM of the respective photosensitizers used were dissolved in water or in the emulsions E1 to E4.
The time-resolved singlet oxygen luminescence measurements were carried out in accordance with the methods described in S. Y. Egorov et al., 1999.
A tuneable laser system was used to produce the singlet oxygen (model: NT242-SH/SFG, serial number: PGD048) from EKSPLA (Vilnius, […]). A portion of the monochromatic laser beam produced was directed onto a photodiode which acted as a trigger signal for the time-correlated single photon measurement.
The other part of the laser beam was directed onto a 1 cm thick quartz cell (SUPRASIL, Type 101-QS, Hellma GmbH & Co. KG, Mühlheim, DE), in which the solution to be tested had been disposed.
The formation of singlet oxygen was detected by direct detection of the time- and spectrally-resolved singlet oxygen luminescence.
Singlet oxygen luminescence was carried out by means of a nitrogen-cooled photomultiplier (model R5509-42, Hamamatsu Photonics, Hamamatsu, Japan) and a multiscaler (7886S, FAST Corn Tec GmbH, Oberhaching, Germany).
The singlet oxygen luminescence was detected at a wavelength in the range 1200 nm to 1400 nm using interference filters which were disposed in front of the photomultiplier.
The quantum yield was determined in accordance with the method described in Baier J. et al. (“Singlet Oxygen Generation by UVA Light Exposure of Endogenous Photosensitizers”, Biophys. J. 91(4), 2006, pages 1452 to 1459; doi. 10.1529/biophysj.106.082388).
The relative yield of singlet oxygen for each photosensitizer with respect to the quantity of singlet oxygen formed in water was calculated from the ratio of the integrals.

[4] = absorption spectrum following irradiation with varying doses of light (degradation of photosensitizer); assay type: physicochemical; conditions: light dose 5.5 J to 990 J
Method: The absorption of the FL-AS-H-1a photosensitizer used in the microemulsions E5 and E6 was determined by recording an absorption spectrum for a wavelength range of 250 nm to 600 nm, as described in Example 1. To this end, the FL-AS-H-2 photosensitizer was dissolved in a concentration of 10 μM in the microemulsions E5 and E6, as well as in water. Furthermore, an absorption spectrum of FL-AS-H-2 in microemulsions E5 and E6 as well as in water was measured following irradiation with varying doses of light. For the irradiation, the light source Blue V from Waldmann, which emits light at 380 to 480 nm (emission maximum at approximately 420 nm) was used. The applied light dose was from 5.5 J to 990 J.

[5] = time-resolved singlet oxygen luminescence measurements in gels; assay type: physicochemical; conditions: final concentration 10 μM
[6] = 10 μM in one of the microemulsions E1 to E4
[7] = photosensitizer 5 μM in microemulsion E1
[8] = photosensitizer 5 μM in microemulsion E2
[9] = photosensitizer 5 μM in microemulsion E1 (DMS, SDS/1-pentanol (1:2); water)
[10] = photosensitizer 5 μM in microemulsion E2 (DMS, SDS/1,2-pentanediol (1:2); water)
[11] = in one of the microemulsions E1 to E4, from a concentration of 25 μM
[12] = 10 μM to 100 μM, both in water and in microemulsions E1 to E4, Blue V 40 s, 20 mW/cm^2
[13] = more than 100 μM in water (concentrated aqueous solutions)
[14] = more than 100 μM to 500 μM in microemulsions

SMILES | reduction in the quantity of S. aureus following irradiation [1, 6] | reduction in the quantity of E. coli following irradiation [2, 6] | production of singlet oxygen following irradiation with electromagnetic radiation [3] | formation of singlet oxygen in the microemulsions used, times higher than in water [3] | Integral ([3]; photosensitizer 5 μM in H2O) | Integral [3, 7] | Integral [3, 8] | Decay period ([3]; photosensitizer 5 μM in H2O) | Formation time ([3]; photosensitizer 5 μM in H2O) | Decay period [3, 7] | Formation time [3, 9] | Decay period [3, 8] | Formation time [3, 10] | Relative yield with respect to H2O ([3]; 5 μM in microemulsion E1) | Relative yield with respect to H2O ([3]; 5 μM in microemulsion E2) | effectiveness against S. aureus in a microemulsion compared with water [1] | effectiveness against E. coli in a microemulsion compared with water [2] | also measured
Cc1cc2nc3c(=O)[nH]c(=O)nc-3n(CCN)c2cc1C.Cl [FL-AS-H-1a, 10-(2-aminoeth-1-yl)-7,8-dimethyl-[3H,10H]-benzo[g]pteridine-2,4-dione hydrochloride] | approximately 2 log10 units | approximately 2 log10 units | produced singlet oxygen | 5 times | 366 | 1752 | 1695 | 3.6 μs | 3.6 μs | 8.6 μs | 3.0 μs | 6.7 μs | 4.0 μs | 4.79 | 4.63 |  |  | 
Cc1cc2nc3c(=O)n(CCN)c(=O)nc-3n(CCN)c2cc1C.Cl.Cl [FL-AS-H-2, 3,10-bis(2′-aminoeth-1′-yl)-7,8-dimethylbenzo[g]pteridine-2,4-dion-dihydrochloride] |  |  |  |  |  |  |  |  |  |  |  |  |  |  |  |  |  | degradation of the photosensitizer following irradiation ([4]; 10 μM in water, microemulsions E5 and E6, Blue V 380 to 480 nm): degraded both in water as well as in the microemulsions E5 and E6; rate of degradation in water compared with microemulsion E5 or E6 ([4]; 10 μM, Blue V): significantly faster
O=C1C(C[n+]2ccccc2)=Cc2cccc3cccc1c23.[Cl-] [SA-PN-01a] | 3 log10 units | 3 log10 units | produced singlet oxygen | 7 times | 571 | 4413 | 3933 | 3.2 μs | 2.5 μs | 9.2 μs | 1.0 μs | 7.4 μs | 1.6 μs | 7.73 | 6.89 | more effective | more effective | reduction in the quantity of S. aureus following irradiation [1, 11]: more than 6 log10 units; reduction in the quantity of E. coli following irradiation [2, 11]: more than 6 log10 units
C[N+](C)(C)CC1=Cc2cccc3cccc(c23)C1=O.[Cl-] [SA-PN-02a, N,N,N-trimethyl-1-(1-oxo-1H-phenalen-2-yl)methanaminium chloride] |  |  |  |  |  |  |  |  |  |  |  |  |  |  |  | more effective | more effective | 
CN(CC1=Cc2cccc3cccc(c23)C1=O)C(=N)N.Cl [SA-PN-24d, 1-((1-oxo-1H-phenalen-2-yl)methyl)-1-methylguanidinium chloride] |  |  |  |  |  |  |  |  |  |  |  |  |  |  |  | more effective | more effective | 
C[n+]1ccc(-c2c3nc(c(-c4cc[n+](C)cc4)c4ccc([nH]4)c(-c4cc[n+](C)cc4)c4nc(c(-c5cc[n+](C)cc5)c5ccc2[nH]5)C=C4)C=C3)cc1 [TMPyP, 5,10,15,20-tetrakis(1-methyl-4-pyridyl)-porphyrin-tetra-(p-toluenesulphonate), reference compound] |  |  | produced singlet oxygen |  | 985 | 2874 | 1955 | 3.8 μs | 1.9 μs | 8.9 μs | 1.7 μs | 7.2 μs | 2.3 μs | 2.92 | 1.98 |  |  | destruction of S. aureus by the singlet oxygen formed by the irradiation [1, 12]: destroyed; reduction in the quantity of S. aureus [1, 13]: 2 log units; reduction in the quantity of S. aureus [1, 14]: 5 log10 units; destruction of E. coli by the singlet oxygen formed by the irradiation [2, 12]: destroyed; reduction in the quantity of E. coli [2, 13]: 2 log units; reduction in the quantity of E. coli [2, 14]: 5 log10 units; decay time for the singlet oxygen signal (tD) ([5]; in gel G3): 7.4 μs; rise time for the singlet oxygen signal (tR) ([5]; in gel G3): 2.7 μs; formation of singlet oxygen following irradiation ([5]; in gels G1, G2 and G3): could be detected
